According to patent publication US8471005B2 (Cephalon, Inc., priority 2008, dated 2013):
Like-named read-outs stand apart in the source and are kept apart here.

Key:
ALK = target: T1, ALK (Homo sapiens, UniProt Q9UM73); test: ALK Kinase Assay (ELISA/TRF, PLC-γ substrate); format: biochemical; conditions: read-out: ALK Potency
T1 construct: host or cells: baculovirus expression system
Procedure, shortened: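 PLC-γ substrate coated at 10 μg/mL in TBS; reaction started with 30 ng/ml ALK, run 15 min at 37° C. Phosphoproduct detected by TRF with Eu-N1-labeled PT66 anti-phosphotyrosine antibody. IC50 from sigmoidal variable-slope fit of percent inhibition versus log concentration.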

JAK2 = target: T2, JAK2 (Homo sapiens, UniProt O60674); test: Recombinant Human JAK2 Kinase Assay (TRF); format: biochemical; conditions: read-out: JAK2 Potency
T2 construct: host or cells: baculovirus expression system
T2 sequence (O60674 whole entry): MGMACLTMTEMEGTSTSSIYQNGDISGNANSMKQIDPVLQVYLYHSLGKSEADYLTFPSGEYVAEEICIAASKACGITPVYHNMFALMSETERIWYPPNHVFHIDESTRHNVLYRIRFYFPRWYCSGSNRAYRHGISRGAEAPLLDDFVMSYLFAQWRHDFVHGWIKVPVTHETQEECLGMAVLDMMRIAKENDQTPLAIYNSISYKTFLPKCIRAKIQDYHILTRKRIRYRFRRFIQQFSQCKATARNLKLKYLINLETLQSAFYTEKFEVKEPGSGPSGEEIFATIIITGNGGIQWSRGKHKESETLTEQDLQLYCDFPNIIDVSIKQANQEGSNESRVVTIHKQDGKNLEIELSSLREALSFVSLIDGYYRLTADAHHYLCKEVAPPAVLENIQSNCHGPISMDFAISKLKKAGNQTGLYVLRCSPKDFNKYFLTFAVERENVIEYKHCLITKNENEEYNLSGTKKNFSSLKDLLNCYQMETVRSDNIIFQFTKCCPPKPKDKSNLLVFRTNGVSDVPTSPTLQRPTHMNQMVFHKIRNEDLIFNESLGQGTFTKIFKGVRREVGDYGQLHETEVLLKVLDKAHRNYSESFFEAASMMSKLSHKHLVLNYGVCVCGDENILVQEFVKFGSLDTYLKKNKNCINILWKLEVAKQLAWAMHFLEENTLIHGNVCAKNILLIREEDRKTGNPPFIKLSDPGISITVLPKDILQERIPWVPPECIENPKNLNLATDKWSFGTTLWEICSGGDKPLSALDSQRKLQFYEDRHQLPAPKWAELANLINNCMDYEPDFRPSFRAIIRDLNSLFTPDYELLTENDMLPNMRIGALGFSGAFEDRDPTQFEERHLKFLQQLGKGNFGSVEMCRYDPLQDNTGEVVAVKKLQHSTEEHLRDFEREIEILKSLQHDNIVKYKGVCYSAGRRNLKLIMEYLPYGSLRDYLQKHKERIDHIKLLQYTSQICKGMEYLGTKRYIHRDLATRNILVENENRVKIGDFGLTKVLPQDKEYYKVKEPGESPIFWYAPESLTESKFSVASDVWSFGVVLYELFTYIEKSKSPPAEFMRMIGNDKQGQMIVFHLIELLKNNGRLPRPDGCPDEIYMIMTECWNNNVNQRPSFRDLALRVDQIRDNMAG
Procedure, shortened: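 Baculovirus-expressed JAK2 (15 ng/ml) phosphorylated a biotinylated 15-mer peptide captured on Neutravidin-coated plates, in 20 mM HEPES pH 7.2 with 0.2 μM ATP, 1 mM MnCl2, 0.1% BSA and 2.5% DMSO. Reaction ran 20 min at room temperature; phosphopeptide was detected by time-resolved fluorescence with Eu-N1-labelled PY100 antibody.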

[1] = ALK kinase inhibition, 1 μM ATP
[2] = JAK2 kinase inhibition, 0.2 μM ATP

T1 sequence (Q9UM73 19-1620): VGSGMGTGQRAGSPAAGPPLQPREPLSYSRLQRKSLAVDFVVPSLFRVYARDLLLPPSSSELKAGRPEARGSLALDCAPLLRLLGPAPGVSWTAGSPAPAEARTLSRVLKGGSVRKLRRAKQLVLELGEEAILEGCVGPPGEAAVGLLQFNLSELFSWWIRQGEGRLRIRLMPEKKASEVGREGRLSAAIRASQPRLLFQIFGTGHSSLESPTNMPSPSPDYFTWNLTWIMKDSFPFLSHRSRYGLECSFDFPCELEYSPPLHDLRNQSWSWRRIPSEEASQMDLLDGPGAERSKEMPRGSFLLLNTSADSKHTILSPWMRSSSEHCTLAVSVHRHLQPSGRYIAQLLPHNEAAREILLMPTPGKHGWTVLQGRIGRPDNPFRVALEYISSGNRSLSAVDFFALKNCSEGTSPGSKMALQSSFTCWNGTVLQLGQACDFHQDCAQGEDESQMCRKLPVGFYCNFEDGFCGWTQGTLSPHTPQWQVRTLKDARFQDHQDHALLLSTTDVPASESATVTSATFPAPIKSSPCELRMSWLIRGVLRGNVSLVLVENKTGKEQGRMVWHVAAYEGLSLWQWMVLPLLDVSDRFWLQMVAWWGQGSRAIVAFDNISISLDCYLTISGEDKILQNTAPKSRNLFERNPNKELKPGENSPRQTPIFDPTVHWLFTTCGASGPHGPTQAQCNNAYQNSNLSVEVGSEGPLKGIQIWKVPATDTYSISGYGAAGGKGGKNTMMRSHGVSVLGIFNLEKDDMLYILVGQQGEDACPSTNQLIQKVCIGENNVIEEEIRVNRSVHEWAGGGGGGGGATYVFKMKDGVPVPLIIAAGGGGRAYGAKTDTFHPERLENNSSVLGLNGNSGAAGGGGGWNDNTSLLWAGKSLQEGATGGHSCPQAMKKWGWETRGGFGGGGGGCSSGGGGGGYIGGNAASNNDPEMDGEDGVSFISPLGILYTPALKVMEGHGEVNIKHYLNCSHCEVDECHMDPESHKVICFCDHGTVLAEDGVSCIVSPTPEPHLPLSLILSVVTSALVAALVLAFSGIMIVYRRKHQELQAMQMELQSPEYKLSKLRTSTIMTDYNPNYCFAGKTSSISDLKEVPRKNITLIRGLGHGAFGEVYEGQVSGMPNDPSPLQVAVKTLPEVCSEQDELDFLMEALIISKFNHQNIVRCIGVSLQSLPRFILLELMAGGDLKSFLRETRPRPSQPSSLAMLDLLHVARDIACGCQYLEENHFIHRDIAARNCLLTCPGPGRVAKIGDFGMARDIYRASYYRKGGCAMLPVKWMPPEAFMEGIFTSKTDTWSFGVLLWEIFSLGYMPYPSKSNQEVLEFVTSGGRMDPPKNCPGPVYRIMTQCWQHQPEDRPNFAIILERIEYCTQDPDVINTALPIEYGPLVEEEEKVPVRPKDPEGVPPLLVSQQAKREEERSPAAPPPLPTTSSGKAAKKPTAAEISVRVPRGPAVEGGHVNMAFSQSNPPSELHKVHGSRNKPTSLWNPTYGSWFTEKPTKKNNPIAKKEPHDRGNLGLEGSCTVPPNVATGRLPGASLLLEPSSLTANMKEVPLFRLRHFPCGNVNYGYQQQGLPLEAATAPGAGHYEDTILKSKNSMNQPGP

Compound	IC50 (ALK; [1]) [nM]	IC50 (JAK2; [2]) [nM]	IC50 (ALK; ALK Kinase Inhibition) [nM]	IC50 (JAK2; JAK2 Kinase Inhibition) [nM]
CN(c1ccccc1-c1ccc2cnc(Nc3cccnc3)nn12)S(C)(=O)=O [Example 1361, N-Methyl-N-{2-[2-(pyridin-3-ylamino)-pyrrolo[2,1-f][1,2,4]triazin-7-yl]-phenyl}-methanesulfonamide]	1000 to 10000	< 100	–	–
CS(=O)(=O)c1cccc(-c2ccc3cnc(Nc4ccc(C5(C#N)CCN(CC(N)=O)CC5)cc4)nn23)c1 [Example 1546, 2-(4-Cyano-4-{4-[7-(3-methanesulfonyl-phenyl)-pyrrolo[2,1-f][1,2,4]triazin-2-ylamino]-phenyl}-piperidin-1-yl)-acetamide]	–	–	1000 to 10000	< 100
COc1cc(C2CCN(CCF)CC2)ccc1Nc1ncc2ccc(-c3ccccc3OC)n2n1 [Example 791, {4-[1-(2-Fluoro-ethyl)-piperidin-4-yl]-2-methoxy-phenyl}-[7-(2-methoxy-phenyl)-pyrrolo[2,1-f][1,2,4]triazin-2-yl]-amine]	< 100	100 to 1000	–	–
COc1ccc(-c2ccc3cnc(Nc4ccc(N5CCN(CC(N)=O)CC5)c(F)c4)nn23)cn1 [Example 1415, 2-(4-{2-Fluoro-4-[7-(6-methoxy-pyridin-3-yl)-pyrrolo[2,1-f][1,2,4]triazin-2-ylamino]-phenyl}-piperazin-1-yl)-acetamide]	–	–	100 to 1000	< 100
Cn1cnc2ccc(Nc3ncc4ccc(-c5ccccc5NS(C)(=O)=O)n4n3)cc21 [Example 1310, N-{2-[2-(3-Methyl-3H-benzoimidazol-5-ylamino)-pyrrolo[2,1-f][1,2,4]triazin-7-yl]-phenyl}-methanesulfonamide]	100 to 1000	< 100	–	–
COc1ccccc1-c1ccc2cnc(Nc3ccc(OCCN4CCCC4)cc3)nn12 [Example 121, [7-(2-Methoxy-phenyl)-pyrrolo[2,1-f][1,2,4]triazin-2-yl]-[4-(2-pyrrolidin-1-yl-ethoxy)-phenyl]-amine]	–	–	< 100	< 100
CC(=O)Nc1cc(Nc2ncc3ccc(-c4cccc(S(=O)(=O)NC(C)(C)C)c4)n3n2)ccc1C [Example 1398, N-{5-[7-(3-tert-Butylsulfamoyl-phenyl)-pyrrolo[2,1-f][1,2,4]triazin-2-ylamino]-2-methyl-phenyl}-acetamide]	–	–	100 to 1000	< 100
CN1CCN(c2ccc(Nc3ncc4ccc(-c5ccccc5Cl)n4n3)cc2)CC1 [Example 25, [7-(2-Chloro-phenyl)-pyrrolo[2,1-f][1,2,4]triazin-2-yl]-[4-(4-methyl-piperazin-1-yl)-phenyl]-amine]	–	–	< 100	< 100
COc1ccc(Nc2ncc3ccc(-c4cccc(S(=O)(=O)NC(C)(C)C)c4)n3n2)cc1N1CCCC1=O [Example 1377, N-tert-Butyl-3-{2-[4-methoxy-3-(2-oxo-pyrrolidin-1-yl)-phenylamino]-pyrrolo[2,1-f][1,2,4]triazin-7-yl}-benzenesulfonamide]	–	–	100 to 1000	< 100
CC(C)(C)NS(=O)(=O)c1cccc(-c2ccc3cnc(Nc4cccc(NS(C)(=O)=O)c4)nn23)c1 [Example 889, N-tert-Butyl-3-[2-(3-methanesulfonylamino-phenylamino)-pyrrolo[2,1-f][1,2,4]triazin-7-yl]-benzenesulfonamide]	100 to 1000	< 100	–	–
COc1cc(C2CCN(CC(N)=O)CC2)ccc1Nc1ncc2c(Cl)cc(-c3ccccc3N(C)S(C)(=O)=O)n2n1 [Example 1554, 2-[4-(4-{5-Chloro-7-[2-(methanesulfonyl-methyl-amino)-phenyl]-pyrrolo[2,1-f][1,2,4]triazin-2-ylamino}-3-methoxy-phenyl)-piperidin-1-yl]-acetamide]	–	–	< 100	1000 to 10000
COc1cc(N2CCC(N3CCOCC3)CC2)ccc1Nc1ncc2ccc(-c3ccccc3C(C)=O)n2n1 [Example 1454, 1-(2-{2-[2-Methoxy-4-(4-morpholin-4-yl-piperidin-1-yl)-phenylamino]-pyrrolo[2,1-f][1,2,4]triazin-7-yl}-phenyl)-ethanone]	–	–	< 100	100 to 1000
CN(c1ccccc1-c1ccc2cnc(Nc3ccc4ncn(CCN5CCOCC5)c4c3)nn12)S(C)(=O)=O [Example 1336, N-Methyl-N-(2-{2-[3-(2-morpholin-4-yl-ethyl)-3H-benzimidazol-5-ylamino]-pyrrolo[2,1-f][1,2,4]triazin-7-yl}-phenyl)-methanesulfonamide]	1000 to 10000	< 100	–	–
COc1cc2c(cc1Nc1ncc3ccc(-c4ccccc4OC)n3n1)CN(CC(N)=O)C2 [Example 864, 2-{5-Methoxy-6-[7-(2-methoxy-phenyl)-pyrrolo[2,1-f][1,2,4]triazin-2-ylamino]-1,3-dihydro-isoindol-2-yl}-acetamide]	< 100	< 100	–	–
COc1cc(C2CCN(C)CC2C)ccc1Nc1ncc2ccc(-c3ccccc3OC)n2n1 (racemic) [Example 858, (±)-[4-(1,3-Dimethyl-piperidin-4-yl)-2-methoxy-phenyl]-[7-(2-methoxy-phenyl)-pyrrolo[2,1-f][1,2,4]triazin-2-yl]-amine]	< 100	100 to 1000	–	–
CN(c1ccccc1-c1ccc2cnc(Nc3ccc4c(c3)ncn4CCN3CCOCC3)nn12)S(C)(=O)=O [Example 1335, N-Methyl-N-(2-{2-[1-(2-morpholin-4-yl-ethyl)-1H-benzimidazol-5-ylamino]-pyrrolo[2,1-f][1,2,4]triazin-7-yl}-phenyl)-methanesulfonamide]	100 to 1000	< 100	–	–
COc1ccccc1-c1ccc2cnc(Nc3ccc4nc(CN5CCOCC5)[nH]c4c3)nn12 [Example 1518, [7-(2-Methoxy-phenyl)-pyrrolo[2,1-f][1,2,4]triazin-2-yl]-(2-morpholin-4-ylmethyl-3H-benzimidazol-5-yl)-amine]	–	–	100 to 1000	< 100
COc1ccccc1-c1ccc2cnc(Nc3ccc4c(c3OC)CN(C3COC3)C4)nn12 [Example 851, (4-Methoxy-2-oxetan-3-yl-2,3-dihydro-1H-isoindol-5-yl)-[7-(2-methoxy-phenyl)-pyrrolo[2,1-f][1,2,4]triazin-2-yl]-amine]	100 to 1000	100 to 1000	–	–
COC[C@H](O)CN1CCN(Cc2ccc(Nc3ncc4ccc(-c5ccccc5N(C)S(C)(=O)=O)n4n3)c(OC)c2)CC1 [Example 1225, N-[2-(2-{4-[4-((R)-2-Hydroxy-3-methoxy-propyl)-piperazin-1-ylmethyl]-2-methoxy-phenylamino}-pyrrolo[2,1-f][1,2,4]triazin-7-yl)-phenyl]-N-methyl-methanesulfonamide]	< 100	1000 to 10000	–	–
CCN1CCOC(c2ccc(Nc3ncc4ccc(-c5cccc(NS(C)(=O)=O)c5)n4n3)cc2)C1 (centres unmarked) [Example 651, N-(3-{2-[4-(4-Ethyl-morpholin-2-yl)-phenylamino]-pyrrolo[2,1-f][1,2,4]triazin-7-yl}phenyl)methanesulfonamide]	100 to 1000	< 100	–	–
CNC(=O)c1ccc(-c2ccc3cnc(Nc4ccc(N5CCOCC5)cc4)nn23)cc1 [Example 55, N-Methyl-4-[2-(4-morpholin-4-yl-phenylamino)-pyrrolo[2,1-f][1,2,4]triazin-7-yl]-benzamide]	–	–	1000 to 10000	< 100
CS(=O)(=O)c1cccc(-c2ccc3cnc(Nc4ccc5[nH]c(CN6CCOCC6)nc5c4)nn23)c1 [Example 1537, [7-(3-Methanesulfonyl-phenyl)-pyrrolo[2,1-f][1,2,4]triazin-2-yl]-(2-morpholin-4-ylmethyl-1H-benzimidazol-5-yl)-amine]	–	–	1000 to 10000	< 100
CN1CCN(Cc2cccc(Nc3ncc4ccc(-c5cccc(S(C)(=O)=O)c5)n4n3)n2)CC1 [Example 1124, [7-(3-Methanesulfonyl-phenyl)-pyrrolo[2,1-f][1,2,4]triazin-2-yl]-[6-(4-methyl-piperazin-1-ylmethyl)-pyridin-2-yl]-amine]	> 10000	> 10000	–	–
O=C(c1cccc(Nc2ncc3ccc(-c4cccc(Cl)c4)n3n2)c1)N1CCOCC1 [Example 329, {3-[7-(3-Chloro-phenyl)-pyrrolo[2,1-f][1,2,4]triazin-2-ylamino]-phenyl}-morpholin-4-yl-methanone]	–	–	100 to 1000	< 100
COc1ccccc1-c1ccc2cnc(Nc3ccc(N4CCCC(N5CCN(C)CC5)C4)cc3)nn12 (centres unmarked) [Example 348, [7-(2-Methoxy-phenyl)-pyrrolo[2,1-f][1,2,4]triazin-2-yl]-{4-[3-(4-methyl-piperazin-1-yl)-piperidin-1-yl]-phenyl}-amine]	–	–	< 100	< 100
CC(C)(C)NS(=O)(=O)c1cccc(-c2ccc3cnc(Nc4cccc(C(N)=O)c4)nn23)c1 [Example 1390, 3-[7-(3-tert-Butylsulfamoyl-phenyl)-pyrrolo[2,1-f][1,2,4]triazin-2-ylamino]-benzamide]	–	–	1000 to 10000	< 100
COc1ccccc1-c1ccc2cnc(Nc3cccc(C4C(=O)N(C)CCN4C)c3)nn12 (centres unmarked) [Example 1082, 3-{3-[7-(2-Methoxy-phenyl)-pyrrolo[2,1-f][1,2,4]triazin-2-ylamino]-phenyl}-1,4-dimethyl-piperazin-2-one]	1000 to 10000	< 100	–	–
CC(=O)N1CCCCc2ccc(Nc3ncc4ccc(-c5cccc(NS(C)(=O)=O)c5)n4n3)cc21 [Example 633, N-{3-[2-(1-Acetyl-2,3,4,5-tetrahydro-1H-benzo[b]azepin-8-ylamino)-pyrrolo[2,1-f][1,2,4]triazin-7-yl]-phenyl}methanesulfonamide]	1000 to 10000	< 100	–	–
